Common to all, as to format: cell-based
Experiment [1] has as its target T1, proteins of HEK293T cells transiently overexpressing caspase-6 (Homo sapiens, UniProt P05165).
T1 sequence (P05165 53-728): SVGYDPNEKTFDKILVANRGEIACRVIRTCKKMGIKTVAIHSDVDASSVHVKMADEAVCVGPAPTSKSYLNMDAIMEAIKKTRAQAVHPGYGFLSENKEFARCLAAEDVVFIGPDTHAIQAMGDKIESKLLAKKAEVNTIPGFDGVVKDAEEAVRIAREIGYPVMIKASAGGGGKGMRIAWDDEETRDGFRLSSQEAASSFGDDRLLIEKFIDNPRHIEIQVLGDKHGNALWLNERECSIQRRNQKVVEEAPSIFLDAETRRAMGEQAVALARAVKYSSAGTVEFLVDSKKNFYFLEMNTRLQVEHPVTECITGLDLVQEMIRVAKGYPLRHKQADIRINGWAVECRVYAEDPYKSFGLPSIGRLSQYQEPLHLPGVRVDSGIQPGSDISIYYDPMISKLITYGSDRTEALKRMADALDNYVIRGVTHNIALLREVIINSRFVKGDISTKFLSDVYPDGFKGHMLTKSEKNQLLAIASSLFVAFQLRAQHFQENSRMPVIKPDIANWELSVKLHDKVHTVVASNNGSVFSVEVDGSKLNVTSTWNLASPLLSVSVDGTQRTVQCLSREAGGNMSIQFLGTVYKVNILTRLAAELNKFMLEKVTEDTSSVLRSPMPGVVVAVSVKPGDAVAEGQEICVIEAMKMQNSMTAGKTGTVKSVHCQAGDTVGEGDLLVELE

The target of experiment [2] is proteins of HEK293T cells transiently overexpressing caspase-6 (Homo sapiens, UniProt P10155). To be noted: Probe; protein TROVE2 P10155.
Sequence of proteins of HEK293T cells transiently overexpressing caspase-6 (Homo sapiens, UniProt P10155) (P10155 whole entry): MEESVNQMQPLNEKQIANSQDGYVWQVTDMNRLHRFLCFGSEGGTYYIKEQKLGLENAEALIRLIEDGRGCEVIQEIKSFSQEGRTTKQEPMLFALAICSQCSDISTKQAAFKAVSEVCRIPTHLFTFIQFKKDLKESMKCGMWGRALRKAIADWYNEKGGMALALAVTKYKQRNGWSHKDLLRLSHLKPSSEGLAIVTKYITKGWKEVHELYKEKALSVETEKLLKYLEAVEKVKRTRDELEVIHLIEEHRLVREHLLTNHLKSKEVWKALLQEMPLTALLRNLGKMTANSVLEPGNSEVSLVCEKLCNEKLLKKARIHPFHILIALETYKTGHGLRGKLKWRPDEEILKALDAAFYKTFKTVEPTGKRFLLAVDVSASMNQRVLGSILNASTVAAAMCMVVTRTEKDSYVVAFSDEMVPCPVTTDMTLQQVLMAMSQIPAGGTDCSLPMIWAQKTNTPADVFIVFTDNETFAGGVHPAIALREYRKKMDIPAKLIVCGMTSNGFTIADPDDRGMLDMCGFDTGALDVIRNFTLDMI
The target in experiment [3] is proteins of HEK293T cells transiently overexpressing caspase-6 (Homo sapiens, UniProt P10599). The note with it: exp_ref Probe; protein TXN (P10599); analysis C6.
Sequence of proteins of HEK293T cells transiently overexpressing caspase-6 (Homo sapiens, UniProt P10599) (P10599 whole entry): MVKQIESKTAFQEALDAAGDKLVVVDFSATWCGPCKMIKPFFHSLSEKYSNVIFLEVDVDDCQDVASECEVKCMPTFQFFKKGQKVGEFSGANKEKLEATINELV
In experiment [4] the target is proteins of HEK293T cells transiently overexpressing caspase-6 (Homo sapiens, UniProt P14174). The note with it: Probe; protein MIF P14174.
Sequence of proteins of HEK293T cells transiently overexpressing caspase-6 (Homo sapiens, UniProt P14174) (P14174 whole entry): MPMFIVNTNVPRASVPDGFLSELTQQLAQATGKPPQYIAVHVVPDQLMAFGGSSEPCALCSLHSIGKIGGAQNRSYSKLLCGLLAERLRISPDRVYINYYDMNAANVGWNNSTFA
Experiment [5] deals with proteins of HEK293T cells transiently overexpressing caspase-6 (Homo sapiens, UniProt P23526). To be noted: exp_ref Probe; protein AHCY (P23526); analysis C6.
Sequence of proteins of HEK293T cells transiently overexpressing caspase-6 (Homo sapiens, UniProt P23526) (P23526 whole entry): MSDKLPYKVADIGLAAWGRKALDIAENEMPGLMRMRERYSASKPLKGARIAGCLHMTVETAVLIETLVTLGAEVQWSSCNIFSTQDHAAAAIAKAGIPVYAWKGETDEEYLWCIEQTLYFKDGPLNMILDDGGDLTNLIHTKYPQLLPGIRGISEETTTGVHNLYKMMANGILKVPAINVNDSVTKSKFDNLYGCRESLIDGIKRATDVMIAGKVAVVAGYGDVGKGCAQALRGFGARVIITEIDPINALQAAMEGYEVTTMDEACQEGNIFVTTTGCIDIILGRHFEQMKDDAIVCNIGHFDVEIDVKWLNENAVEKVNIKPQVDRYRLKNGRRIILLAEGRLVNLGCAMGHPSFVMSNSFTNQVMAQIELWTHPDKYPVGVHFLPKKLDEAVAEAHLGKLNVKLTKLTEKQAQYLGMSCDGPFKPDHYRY
Experiment [6] addresses T2, proteins of HEK293T cells transiently overexpressing caspase-6 (Homo sapiens, UniProt Q02978).
T2 sequence (Q02978 1-314): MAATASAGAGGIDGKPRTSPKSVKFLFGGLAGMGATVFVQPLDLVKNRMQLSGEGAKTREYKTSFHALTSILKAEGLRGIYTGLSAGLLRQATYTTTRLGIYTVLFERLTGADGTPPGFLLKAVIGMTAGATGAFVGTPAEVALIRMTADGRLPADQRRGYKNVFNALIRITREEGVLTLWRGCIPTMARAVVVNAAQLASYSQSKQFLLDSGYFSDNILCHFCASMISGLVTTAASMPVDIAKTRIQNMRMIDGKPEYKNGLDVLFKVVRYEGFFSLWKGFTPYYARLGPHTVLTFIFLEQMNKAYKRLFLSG
The note with it: protein SLC25A11 (Q02978), analysis C6.

In experiment [7] the target is proteins of HEK293T cells transiently overexpressing caspase-6 (Homo sapiens, UniProt Q04637). To be noted: protein EIF4G1 (Q04637).
Sequence of proteins of HEK293T cells transiently overexpressing caspase-6 (Homo sapiens, UniProt Q04637) (Q04637 whole entry): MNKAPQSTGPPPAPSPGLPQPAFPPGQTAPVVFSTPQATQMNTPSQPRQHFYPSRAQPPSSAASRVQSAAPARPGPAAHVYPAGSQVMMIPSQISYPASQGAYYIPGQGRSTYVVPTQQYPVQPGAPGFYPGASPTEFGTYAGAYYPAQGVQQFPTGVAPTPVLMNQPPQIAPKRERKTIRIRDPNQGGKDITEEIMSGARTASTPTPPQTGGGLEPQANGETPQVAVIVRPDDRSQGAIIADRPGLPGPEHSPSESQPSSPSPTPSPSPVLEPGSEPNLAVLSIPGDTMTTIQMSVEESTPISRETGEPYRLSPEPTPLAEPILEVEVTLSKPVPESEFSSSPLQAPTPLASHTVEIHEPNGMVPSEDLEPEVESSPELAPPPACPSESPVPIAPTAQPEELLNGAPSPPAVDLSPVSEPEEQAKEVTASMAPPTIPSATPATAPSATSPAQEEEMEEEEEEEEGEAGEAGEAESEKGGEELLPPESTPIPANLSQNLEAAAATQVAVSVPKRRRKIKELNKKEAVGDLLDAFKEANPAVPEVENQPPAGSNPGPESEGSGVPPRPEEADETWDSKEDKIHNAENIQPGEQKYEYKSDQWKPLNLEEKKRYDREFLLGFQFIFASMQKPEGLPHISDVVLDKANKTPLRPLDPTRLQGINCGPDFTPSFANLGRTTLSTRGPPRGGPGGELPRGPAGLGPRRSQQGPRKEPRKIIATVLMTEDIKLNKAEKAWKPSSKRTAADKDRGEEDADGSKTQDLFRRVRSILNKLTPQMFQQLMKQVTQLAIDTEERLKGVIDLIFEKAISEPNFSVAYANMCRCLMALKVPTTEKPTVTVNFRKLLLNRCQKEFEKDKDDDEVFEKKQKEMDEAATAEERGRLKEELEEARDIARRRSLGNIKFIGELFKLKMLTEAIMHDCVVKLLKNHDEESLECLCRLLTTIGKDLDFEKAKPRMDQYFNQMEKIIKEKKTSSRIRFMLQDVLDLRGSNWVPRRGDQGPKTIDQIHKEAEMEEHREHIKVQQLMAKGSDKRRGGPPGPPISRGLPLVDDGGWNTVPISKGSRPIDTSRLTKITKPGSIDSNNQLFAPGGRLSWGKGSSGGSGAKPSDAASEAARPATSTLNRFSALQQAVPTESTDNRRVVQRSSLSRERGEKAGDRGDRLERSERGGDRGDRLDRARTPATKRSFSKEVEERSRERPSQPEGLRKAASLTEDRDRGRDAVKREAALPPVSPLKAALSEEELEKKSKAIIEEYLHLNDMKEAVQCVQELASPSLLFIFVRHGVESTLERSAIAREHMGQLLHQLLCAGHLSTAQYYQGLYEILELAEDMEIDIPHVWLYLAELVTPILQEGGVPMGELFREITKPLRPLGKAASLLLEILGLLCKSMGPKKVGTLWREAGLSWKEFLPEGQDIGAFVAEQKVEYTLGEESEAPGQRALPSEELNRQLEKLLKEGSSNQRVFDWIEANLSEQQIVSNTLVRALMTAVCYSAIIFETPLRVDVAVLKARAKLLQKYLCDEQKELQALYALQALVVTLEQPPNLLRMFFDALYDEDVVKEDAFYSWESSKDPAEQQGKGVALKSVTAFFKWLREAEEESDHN
Experiment [8] concerns the target proteins of HEK293T cells transiently overexpressing caspase-6 (Homo sapiens, UniProt Q7KZF4). The note with it: exp_ref Probe; protein SND1 (Q7KZF4); analysis C6.
The target of experiment [9] is T3, proteins of HEK293T cells transiently overexpressing caspase-6 (Homo sapiens, UniProt Q8WUM4).
T3 sequence (Q8WUM4 1-868): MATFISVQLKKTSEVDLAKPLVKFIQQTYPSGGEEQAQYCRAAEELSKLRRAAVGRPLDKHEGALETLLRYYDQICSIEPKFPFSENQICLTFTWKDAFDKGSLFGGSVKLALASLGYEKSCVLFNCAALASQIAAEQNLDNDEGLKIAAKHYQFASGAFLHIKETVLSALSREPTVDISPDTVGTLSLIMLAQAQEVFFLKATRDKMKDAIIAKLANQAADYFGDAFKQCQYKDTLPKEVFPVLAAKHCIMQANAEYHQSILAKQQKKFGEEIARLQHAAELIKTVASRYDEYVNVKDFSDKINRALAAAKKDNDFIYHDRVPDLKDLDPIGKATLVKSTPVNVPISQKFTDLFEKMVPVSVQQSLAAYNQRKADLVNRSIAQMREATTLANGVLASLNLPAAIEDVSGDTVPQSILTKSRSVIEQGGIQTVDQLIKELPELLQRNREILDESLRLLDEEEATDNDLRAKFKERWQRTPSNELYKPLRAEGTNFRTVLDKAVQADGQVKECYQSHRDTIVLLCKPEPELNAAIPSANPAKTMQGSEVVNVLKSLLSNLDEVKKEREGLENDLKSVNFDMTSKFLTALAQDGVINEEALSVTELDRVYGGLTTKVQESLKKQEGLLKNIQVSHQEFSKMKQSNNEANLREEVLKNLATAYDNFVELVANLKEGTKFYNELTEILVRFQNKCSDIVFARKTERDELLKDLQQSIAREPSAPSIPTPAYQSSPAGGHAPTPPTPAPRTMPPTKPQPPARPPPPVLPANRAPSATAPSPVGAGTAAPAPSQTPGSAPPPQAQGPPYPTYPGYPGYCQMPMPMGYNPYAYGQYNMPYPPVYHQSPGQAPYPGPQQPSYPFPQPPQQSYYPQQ
The note with it: protein PDCD6IP (Q8WUM4); exp_ref Probe; analysis C6.

In experiment [10] the target is proteins of HEK293T cells transiently overexpressing caspase-6 (Homo sapiens, UniProt Q96K37). To be noted: protein SLC35E1 (Q96K37); exp_ref Probe; analysis C6.
Sequence of proteins of HEK293T cells transiently overexpressing caspase-6 (Homo sapiens, UniProt Q96K37) (Q96K37 whole entry): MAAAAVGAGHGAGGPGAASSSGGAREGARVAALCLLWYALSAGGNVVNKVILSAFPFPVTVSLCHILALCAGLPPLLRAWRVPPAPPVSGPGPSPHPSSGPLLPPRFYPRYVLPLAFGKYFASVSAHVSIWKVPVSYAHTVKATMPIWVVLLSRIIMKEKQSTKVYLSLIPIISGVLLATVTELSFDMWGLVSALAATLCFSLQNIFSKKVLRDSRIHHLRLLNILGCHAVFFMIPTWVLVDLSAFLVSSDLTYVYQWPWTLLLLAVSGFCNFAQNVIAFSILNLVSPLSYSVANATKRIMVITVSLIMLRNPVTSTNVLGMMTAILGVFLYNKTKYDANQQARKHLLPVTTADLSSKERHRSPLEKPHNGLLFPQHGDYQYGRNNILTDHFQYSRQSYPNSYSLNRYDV
Experiment [11] deals with proteins of HEK293T cells transiently overexpressing caspase-6 (Homo sapiens, UniProt Q9UL46). To be noted: protein PSME2 (Q9UL46); exp_ref Probe; analysis C6.
Sequence of proteins of HEK293T cells transiently overexpressing caspase-6 (Homo sapiens, UniProt Q9UL46) (Q9UL46 whole entry): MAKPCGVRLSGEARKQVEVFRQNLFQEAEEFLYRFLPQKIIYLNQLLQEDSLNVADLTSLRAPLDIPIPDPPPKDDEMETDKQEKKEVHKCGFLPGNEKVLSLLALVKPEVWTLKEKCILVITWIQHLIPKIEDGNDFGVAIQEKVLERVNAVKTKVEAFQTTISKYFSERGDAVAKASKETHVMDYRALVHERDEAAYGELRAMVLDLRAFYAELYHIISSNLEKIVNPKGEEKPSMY

Sequence of proteins of HEK293T cells transiently overexpressing caspase-6 (Homo sapiens, UniProt Q7KZF4) (Q7KZF4 whole entry): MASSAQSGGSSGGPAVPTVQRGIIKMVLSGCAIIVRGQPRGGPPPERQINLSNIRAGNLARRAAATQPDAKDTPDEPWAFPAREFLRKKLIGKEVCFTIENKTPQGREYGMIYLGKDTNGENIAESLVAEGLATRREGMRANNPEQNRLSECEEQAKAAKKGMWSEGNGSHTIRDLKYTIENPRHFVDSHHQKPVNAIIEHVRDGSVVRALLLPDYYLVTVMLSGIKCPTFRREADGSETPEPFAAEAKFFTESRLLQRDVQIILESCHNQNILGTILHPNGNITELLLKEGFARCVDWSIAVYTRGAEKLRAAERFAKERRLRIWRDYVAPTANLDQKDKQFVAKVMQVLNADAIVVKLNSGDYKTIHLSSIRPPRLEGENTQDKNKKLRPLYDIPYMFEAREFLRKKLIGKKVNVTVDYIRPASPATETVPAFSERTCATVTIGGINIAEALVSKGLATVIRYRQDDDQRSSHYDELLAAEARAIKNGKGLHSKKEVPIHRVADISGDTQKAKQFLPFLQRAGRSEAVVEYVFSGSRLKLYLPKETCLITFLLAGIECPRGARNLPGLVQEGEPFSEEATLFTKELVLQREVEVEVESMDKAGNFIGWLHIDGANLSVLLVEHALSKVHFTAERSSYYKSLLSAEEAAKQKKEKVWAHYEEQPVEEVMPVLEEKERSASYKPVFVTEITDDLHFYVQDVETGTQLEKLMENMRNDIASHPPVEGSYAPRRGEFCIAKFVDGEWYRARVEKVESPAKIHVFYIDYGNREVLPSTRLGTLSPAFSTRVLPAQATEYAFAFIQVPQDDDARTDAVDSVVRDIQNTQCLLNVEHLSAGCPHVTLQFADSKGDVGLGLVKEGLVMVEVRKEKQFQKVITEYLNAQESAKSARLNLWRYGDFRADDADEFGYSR

With `C#CCOc1ccc([C@@H]2C[C@@H](C(=O)Nc3ccc(OC(F)(F)F)cc3)CN(S(=O)(=O)C=C)C2)cc1` (relative stereo) [13-t], the enrich.exp.med in experiment [1] (Probe, protein PCCA P05165) is reported as -2.194; in [2], -1.006; in experiment [3], 0.866; in [4], -1.906; in experiment [5], 0.06916; in experiment [6] (exp_ref Probe) it was 2.869. The enrich.exp.med in experiment [7] (exp_ref Probe, analysis C6) is reported as 0.9115; in experiment [8], 0.1516; in experiment [9], 1.9; in [10], 1.71; in experiment [11], 1.487. For the same compound, the figures for the enrich.exp.med.lin in experiment [1] (protein PCCA (P05165)), in experiment [6] (Expt Probe) and in [7] were 0.2185, 7.305 and 1.881, respectively. Also, the values for the enrich.exp.med.log2 in experiment [1] (protein PCCA (P05165)), in [6] (Expt Probe) and in [7] were -2.194, 2.869 and 0.9115, respectively.

For the origin of these results see PMC10176470, “Engaging a Non-catalytic Cysteine Residue Drives Potent and Selective Inhibition of Caspase-6” (Journal of the American Chemical Society, 2023).
